In ChEMBL document CHEMBL5042524, “Discovery of Novel Histone Deacetylase 6 (HDAC6) Inhibitors with Enhanced Antitumor Immunity of Anti-PD-L1 Immunotherapy in Melanoma” (J Med Chem, 2022):

What was measured:
Histone deacetylase = test: Inhibition of HDAC in human HeLa nuclear extracts using fluorometric substrate incubated for 30 mins by fluorescence plate reader analysis; format: cell-based
[1] = biological target: T1, Protein deacetylase HDAC6 (Homo sapiens, UniProt Q9UBN7); test: Inhibition of recombinant human N-terminal GST tagged HDAC6 expressed in baculovirus infected Sf9 insect cells using Ac-Leu-Gly-Lys (Ac)-AMC as substrate preincubated for 5 mins followed by substrate addition and measured after 30 mins by fluorescence microtiter plate reader assay
T1 sequence (Q9UBN7 whole entry): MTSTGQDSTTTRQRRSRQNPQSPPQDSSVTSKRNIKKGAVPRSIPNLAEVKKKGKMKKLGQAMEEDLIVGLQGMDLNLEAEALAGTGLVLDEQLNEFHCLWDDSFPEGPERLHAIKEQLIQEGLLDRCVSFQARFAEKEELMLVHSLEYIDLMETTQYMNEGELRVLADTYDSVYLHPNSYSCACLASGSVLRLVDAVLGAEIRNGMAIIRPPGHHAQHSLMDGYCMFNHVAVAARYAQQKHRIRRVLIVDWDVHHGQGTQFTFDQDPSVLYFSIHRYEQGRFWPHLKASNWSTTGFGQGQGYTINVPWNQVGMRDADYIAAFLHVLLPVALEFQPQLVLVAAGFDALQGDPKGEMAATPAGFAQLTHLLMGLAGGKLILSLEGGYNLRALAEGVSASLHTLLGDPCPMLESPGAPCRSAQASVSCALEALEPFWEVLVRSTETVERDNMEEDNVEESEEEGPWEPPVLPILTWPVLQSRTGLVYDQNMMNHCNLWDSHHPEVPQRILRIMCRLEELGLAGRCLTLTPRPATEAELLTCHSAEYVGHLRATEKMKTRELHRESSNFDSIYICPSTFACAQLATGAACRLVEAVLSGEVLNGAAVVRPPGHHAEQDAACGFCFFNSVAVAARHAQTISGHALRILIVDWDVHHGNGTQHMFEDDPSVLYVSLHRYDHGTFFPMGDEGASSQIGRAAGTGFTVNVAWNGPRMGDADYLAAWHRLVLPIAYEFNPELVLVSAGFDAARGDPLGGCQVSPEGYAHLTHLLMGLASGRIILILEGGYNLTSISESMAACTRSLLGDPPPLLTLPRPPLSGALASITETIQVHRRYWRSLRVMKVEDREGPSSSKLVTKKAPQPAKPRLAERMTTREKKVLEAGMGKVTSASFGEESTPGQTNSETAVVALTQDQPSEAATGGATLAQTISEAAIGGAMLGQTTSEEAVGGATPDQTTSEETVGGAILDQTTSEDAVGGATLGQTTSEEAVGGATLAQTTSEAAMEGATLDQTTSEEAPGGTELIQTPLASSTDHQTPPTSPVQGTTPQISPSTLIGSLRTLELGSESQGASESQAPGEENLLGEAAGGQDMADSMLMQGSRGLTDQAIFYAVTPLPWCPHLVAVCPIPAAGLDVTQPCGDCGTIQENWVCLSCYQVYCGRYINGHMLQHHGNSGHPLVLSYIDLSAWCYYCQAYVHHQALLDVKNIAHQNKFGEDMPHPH

Histone deacetylase 3 = Histone deacetylase 3 (Homo sapiens, UniProt O15379); test: Inhibition of recombinant human His-tagged HDAC3 expressed in baculovirus insect cells using Ac-Leu-Gly-Lys (Ac)-AMC as substrate preincubated for 5 mins followed by substrate addition and measured after 30 mins by fluorescence microtiter plate reader assay
[2] = Antiproliferative activity against human YCC3/7 cells assessed as cell growth inhibition; format: functional, cell-based
[3] = Antiproliferative activity against human YCC-11 cells assessed as cell growth inhibition; format: functional, cell-based

Chain of Histone deacetylase 3 (O15379 whole entry): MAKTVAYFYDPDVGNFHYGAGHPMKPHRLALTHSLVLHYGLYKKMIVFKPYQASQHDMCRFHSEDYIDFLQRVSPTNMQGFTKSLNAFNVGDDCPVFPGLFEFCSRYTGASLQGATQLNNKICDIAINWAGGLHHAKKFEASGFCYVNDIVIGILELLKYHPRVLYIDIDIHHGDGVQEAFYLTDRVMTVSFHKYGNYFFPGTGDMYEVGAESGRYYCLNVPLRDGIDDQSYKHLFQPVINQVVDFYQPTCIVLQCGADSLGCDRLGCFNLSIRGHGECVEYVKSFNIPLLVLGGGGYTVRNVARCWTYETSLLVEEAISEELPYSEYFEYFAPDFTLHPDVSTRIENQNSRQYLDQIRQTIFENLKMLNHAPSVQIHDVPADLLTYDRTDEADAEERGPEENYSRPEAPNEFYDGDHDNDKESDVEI

SMILES	IC50 (Histone deacetylase) [nM]	IC50 [1] [nM]	IC50 (Histone deacetylase 3) [nM]	IC50 [2] [nM]	IC50 [3] [nM]
Cc1ccc(-c2ncc(/C=C/C(=O)Nc3ccccc3N)s2)cc1	660	> 10000	1030	–	–
O=C(/C=C/c1cnc(-c2ccc(F)cc2F)s1)NO	940	–	–	–	–
COc1cccc(-c2ncc(/C=C/C(=O)NO)s2)c1	660	–	–	–	–
O=C(/C=C/c1cnc(-c2ccc3c(c2)OCCO3)s1)NO	680	770	> 10000	–	–
Nc1ccccc1NC(=O)/C=C/c1cnc(-c2ccc3cc[nH]c3c2)s1	630	> 10000	2030	–	–
COc1ccc(-c2ncc(/C=C/C(=O)Nc3ccccc3N)s2)c(OC)c1OC	630	> 10000	1550	–	–
COc1ccc(-c2ncc(/C=C/C(=O)Nc3ccccc3N)s2)cc1	710	> 10000	1790	–	–
COc1cc(OC)cc(-c2ncc(/C=C/C(=O)NO)s2)c1	720	940	> 10000	–	–
COc1ccc(-c2ncc(C(=O)NCCCC(=O)NO)s2)c(OC)c1	730	–	–	–	–
Cc1cccc(-c2ncc(/C=C/C(=O)Nc3ccccc3N)s2)c1	810	–	–	–	–
COc1ccc(-c2ncc(C(=O)NCCCCC(=O)NO)s2)c(OC)c1	690	620	9910	–	–
O=C(/C=C/c1cnc(-c2ccc3c(c2)OCO3)s1)NO	890	–	–	–	–
Nc1ccccc1NC(=O)c1ccc(CNC(=O)OCc2cccnc2)cc1 [ENTINOSTAT]	–	–	–	12900	5530
O=C(/C=C/c1cnc(-c2ccc(N3CCOCC3)cc2)s1)NO	550	970	> 10000	–	–

The next lines start with results.

IC50 (Histone deacetylase) [nM]	IC50 [1] [nM]	IC50 (Histone deacetylase 3) [nM]	SMILES	IC50 [2] [nM]	IC50 [3] [nM]
670	800	> 10000	COc1cc(-c2ncc(C(=O)NCCCCCCC(=O)NO)s2)cc(OC)c1OC	–	–
1020	–	–	O=C(CCCCCCNC(=O)c1cnc(-c2ccc(F)cc2)s1)NO	–	–
790	760	9090	COc1cc(OC)cc(-c2ncc(C(=O)NCCCCCCC(=O)NO)s2)c1	–	–
700	710	8070	O=C(CCCCCCNC(=O)c1cnc(-c2ccc(OC(F)(F)F)cc2)s1)NO	–	–
960	–	–	O=C(CCCCCCNC(=O)c1cnc(-c2ccc(Cl)cc2)s1)NO	–	–
710	610	> 10000	COc1ccc(-c2ncc(C(=O)NCCCCCCC(=O)NO)s2)cc1	–	–
800	–	–	O=C(CCCCCCNC(=O)c1cnc(-c2ccc(Oc3ccccc3)cc2)s1)NO	–	–
